Data: US20240156817A1, “TREATMENTS FOR PAIN” (Sevenless Therapeutics Limited, priority 2021, published 2024)

Legend:
[1] = tested on: Nerve Growth Factor (NGF) stimulated phospho-ERK1/2 activation in PC-12 cells; test: Inhibition of NGF stimulated pERK1/2 activation in the PC-12 cell line (HTRF), alone and combined with anti-NGF; assay type: cell-based, rat
Description: Homogeneous Time-Resolved Fluorescence (HTRF) assay:
Reagents from the HTRF commercial kit (Cisbio) were prepared according to the manufacturer's instructions.
PC-12 cells were isolated from routine cellular culture and plated at an appropriate cell density in 384-well plates (typically 25,000 cells per well) for 24 hours under serum-starved conditions. […] Following the 30-minute compound pre-incubation, PC-12 cells were treated with NGF (titrations of NGF from 250 ng/mL to 10 ng/mL were tested), and subsequently incubated for a 5-minute period (37° C./5% CO2). […] A 2-hour incubation at room temperature was performed prior to fluorescence signal determination using a microplate reader (PHERAstar FSX, BMG Labtech).
Percentage inhibition values were calculated per compound concentration by normalising the sample data to the high and low controls used within each plate (+/−25 ng/mLNGF respectively). […]
PC-12 cells were isolated from routine cellular culture and plated at an appropriate cell density (typically 25,000 cells per well) in 384-well plates for 24 hours under serum-starved conditions. […] A 2-hour incubation at room temperature was performed prior to fluorescence signal being measured in a microplate reader (PHERAstar FSX, BMG Labtech). […]

[2] = tested on: CFA-(Complete Freunds Adjuvant) induced hypersensitivity; test: CFA-induced hypersensitivity using weight-bearing in the C57BI6 mouse; assay type: in vivo
Description: On 3 days before CFA dose: habituation to WB apparatus, baseline readings are taken once. 24 h before dosing: intraplantar injection of 20 μl of CFA 1.5 mg/ml to the left hind paw. 1 h before dosing: post-CFA readings are taken for WB. […] Naive animals distribute their body weight equally between the two hind paws. However, when a painful insult is given to one hindpaw (i.e., sciatic nerve constriction or CFA intraplantar injection), the weight is re-distributed so that less weight is put on the affected paw (with a decrease in weight bearing on the injured paw). Animals were placed in the incapacitance tester (Linton Instruments, UK) with the hind paws on separate sensors. The average forces exerted by the left and the right hindlimb were recorded over 2 s. Weight-bearing readings were taken for both left and right hind paws. The ratio ipsilateral/contralateral was calculated and expressed in % (mean±s.e.m.). Statistics: Two-Way RM Mixed model (treatment×repeated factor: time) (InVivoStat v3.7.0.0)

[3] = tested on: pain models (knee osteoarthritis pain, arthritic joint, auto-immune arthritis); settings: rats as printed; cited papers say mouse; cited from earlier work

## Tanezumab: an anti-NGF antibody, pain drug candidate
[1]; Tanezumab at a concentration of 50 nM
  efficacy: 90%
[1]; tanezumab at a concentration of 200 nM
  efficacy: 100%
[2]; Tanezumab 3 mg/kg, DRUG TREATED 0.5 h (approx)
  weight-bearing, ratio ipsilateral/contralateral (mean): 82.54%
[2]; Tanezumab 3 mg/kg, DRUG TREATED 8.5 h (approx)
  weight-bearing, ratio ipsilateral/contralateral (mean): 94.11%
[2]; Tanezumab 3 mg/kg, DRUG TREATED 24.5 h (approx)
  weight-bearing, ratio ipsilateral/contralateral (mean): 89.88%
[2]; Tanezumab 3 mg/kg, DRUG TREATED 32.5 h (approx)
  weight-bearing, ratio ipsilateral/contralateral (mean): 84.25%
[2]; combination study, Tanezumab 3 mg/kg i.p. alone, DRUG TREATED (d2 PM)
  weight-bearing, ratio ipsilateral/contralateral (mean): 99.84%
[3]
  dose at which efficacy is shown (scientific literature): 10 mg/kg
